# Values of other authors in US7247427B1, “Leptin assay” (Yeda Research and Development Co., Ltd., priority 1999, dated 2007).
# System: cultured adipocytes
# Details: no Angiopoietin-2 expressed in the absence of leptin
substance,measurement,value
"leptin: the product of the obese gene, expressed in adipocytes; regulates food intake and energy metabolism through its receptor OB-R",expression of the angiopoietin-2 gene,specifically induces the expression of the angiopoietin-2 gene
